The source of these data is ChEMBL document CHEMBL4190323, “New racemic annulated pyrazolo[1,2-b]phthalazines as tacrine-like AChE inhibitors with potential use in Alzheimer's disease” (Eur J Med Chem, 2017).

Calls of active or inactive are those of the source. No cut-off for these calls is given here.

As a reminder, the viability is the share of living cells, or the viability signal relative to a control. Read a low viability as a greater loss of cells. Broadly, the Ki is a dissociation constant, usually derived from enzyme kinetics or from competition with a known ligand. Read a high Ki as weaker binding. For orientation: IC50 means the concentration that gives 50% inhibition. Low readings indicate greater potency in that assay, high ones weaker potency in that assay.

T1 sequence (O42275 whole entry): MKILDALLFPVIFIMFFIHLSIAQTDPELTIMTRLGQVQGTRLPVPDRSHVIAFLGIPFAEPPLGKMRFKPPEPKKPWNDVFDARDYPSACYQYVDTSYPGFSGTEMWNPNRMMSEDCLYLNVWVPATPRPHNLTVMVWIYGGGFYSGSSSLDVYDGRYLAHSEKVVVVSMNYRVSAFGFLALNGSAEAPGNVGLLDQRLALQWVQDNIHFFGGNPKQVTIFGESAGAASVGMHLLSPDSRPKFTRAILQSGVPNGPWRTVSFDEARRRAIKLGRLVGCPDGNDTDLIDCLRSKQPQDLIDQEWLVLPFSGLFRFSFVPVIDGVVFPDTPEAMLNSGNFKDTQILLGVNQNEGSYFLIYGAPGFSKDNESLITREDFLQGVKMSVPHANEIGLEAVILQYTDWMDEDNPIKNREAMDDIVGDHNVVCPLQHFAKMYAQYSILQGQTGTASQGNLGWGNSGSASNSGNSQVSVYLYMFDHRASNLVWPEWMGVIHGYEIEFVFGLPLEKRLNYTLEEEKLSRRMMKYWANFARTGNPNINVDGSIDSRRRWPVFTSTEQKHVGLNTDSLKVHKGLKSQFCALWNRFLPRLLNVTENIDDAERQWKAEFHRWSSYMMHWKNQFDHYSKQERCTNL
Sequence of Acetylcholinesterase (Electrophorus electricus) (O42275 24-633 limits assumed): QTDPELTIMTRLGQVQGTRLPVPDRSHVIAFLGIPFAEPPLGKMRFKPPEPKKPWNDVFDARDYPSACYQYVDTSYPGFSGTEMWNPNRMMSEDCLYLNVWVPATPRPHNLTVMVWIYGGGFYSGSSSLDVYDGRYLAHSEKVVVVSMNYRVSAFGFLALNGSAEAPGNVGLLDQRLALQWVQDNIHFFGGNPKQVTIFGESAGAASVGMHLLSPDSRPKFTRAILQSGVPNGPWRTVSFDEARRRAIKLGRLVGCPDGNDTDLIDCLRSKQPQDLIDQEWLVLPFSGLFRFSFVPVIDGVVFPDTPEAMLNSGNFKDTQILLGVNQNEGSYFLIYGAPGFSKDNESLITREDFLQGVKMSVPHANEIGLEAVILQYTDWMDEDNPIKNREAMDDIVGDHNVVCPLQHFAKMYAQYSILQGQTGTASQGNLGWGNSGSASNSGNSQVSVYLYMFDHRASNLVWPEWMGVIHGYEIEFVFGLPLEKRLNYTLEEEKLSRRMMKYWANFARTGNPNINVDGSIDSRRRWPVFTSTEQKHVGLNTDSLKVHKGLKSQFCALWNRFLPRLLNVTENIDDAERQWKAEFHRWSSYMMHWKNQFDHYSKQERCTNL

The subject of the first data set is PC-12. Put plainly: Neuroprotective activity in rat PC12 cells assessed as decrease in H2O2 mediated apoptosis at 1 uM preincubated for 3 hrs followed by H2O2 challenge measured after 24 hrs by MTT assay.
Settings: not given
It counts as functional, cell-based. A general note: Tetrazolium assays rely on reduction of a dye to a coloured formazan, in cell work by metabolically active cells.
On to `COc1ccccc1C1c2c(nc3c(c2N)CCCC3)-n2c(=O)c3ccccc3c(=O)n21` (stereo not drawn), for which the result was inactive.

System in a further data set: not listed separately
Briefly: in vitro. The settings on record: human, HepG2 cells.
Description: Cytotoxicity against human HepG2 cells assessed as cell viability at 5 uM after 24 hrs by MTT assay relative to control
Consider `Nc1c2c(nc3c1C(c1cccc(F)c1)n1c(=O)c4ccccc4c(=O)n1-3)CCCC2` (stereo not drawn), for which the viability at 24 h, 5 µM amounted to 90.9%.
`COc1ccccc1C1c2c(nc3c(c2N)CCCC3)-n2c(=O)c3ccccc3c(=O)n21` (stereo not drawn) gave a viability at 24 h, 5 µM of 95%.
The same measure, in the same setting: the value for `Nc1c2c(nc3c1C(c1ccc(F)cc1)n1c(=O)c4ccccc4c(=O)n1-3)CCCC2` (stereo not drawn) was 87.5%.
`Nc1c2c(nc3c1C(c1ccc(Cl)cc1)n1c(=O)c4ccccc4c(=O)n1-3)CCCC2` (stereo not drawn) gave a viability at 24 h, 5 µM of 96.2%.
As for `Nc1c2c(nc3c1C(c1ccc(Br)cc1)n1c(=O)c4ccccc4c(=O)n1-3)CCCC2` (stereo not drawn), the viability at 24 h, 5 µM was found to be 98.3%.

System in another data set: not listed separately
Briefly: in vitro. The conditions noted are these: human, HepG2 cells. The source holds these as a separate data set.
Description: Cytotoxicity against human HepG2 cells assessed as cell viability at 50 uM after 24 hrs by MTT assay relative to control
Take `Nc1c2c(nc3c1C(c1cccc(F)c1)n1c(=O)c4ccccc4c(=O)n1-3)CCCC2` (stereo not drawn): the viability at 24 h, 50 µM is 78.8%.
The same measure, in the same setting: the value for `COc1ccccc1C1c2c(nc3c(c2N)CCCC3)-n2c(=O)c3ccccc3c(=O)n21` (stereo not drawn) was 87.3%; that for `Nc1c2c(nc3c1C(c1ccc(F)cc1)n1c(=O)c4ccccc4c(=O)n1-3)CCCC2` (stereo not drawn) was 75.9%.
Still for that read-out and setting: for `Nc1c2c(nc3c1C(c1ccc(Cl)cc1)n1c(=O)c4ccccc4c(=O)n1-3)CCCC2` (stereo not drawn) the value was 92.4%; for `Nc1c2c(nc3c1C(c1ccc(Br)cc1)n1c(=O)c4ccccc4c(=O)n1-3)CCCC2` (stereo not drawn), 95.7%.

The next data set deals with PC-12. Briefly: Neurotoxicity in rat PC12 cells assessed as reduction in cell viability at 1 to 10 uM after 24 hrs by MTT assay. It counts as toxicity, cell-based. The settings on record: pc-12, 24 h.
Consider `COc1ccccc1C1c2c(nc3c(c2N)CCCC3)-n2c(=O)c3ccccc3c(=O)n21` (stereo not drawn), for which the Activity entry is “Non-Toxic”.

Another data set has as its target T1, Acetylcholinesterase (Electrophorus electricus, UniProt O42275). Put plainly: Mixed-type inhibition of electric eel AChE using acetylthiocholine iodide as substrate preincubated for 10 mins followed by substrate addition measured for 6 mins by Lineweaver-Burk plot analysis.
Settings: not given
`COc1ccccc1C1c2c(nc3c(c2N)CCCC3)-n2c(=O)c3ccccc3c(=O)n21` (stereo not drawn) showed a Ki of 12.6 nM.

System in the next data set: not listed separately
Briefly: in vitro. The settings on record: human, HepG2 cells. This is another data set of the same source.
Description: Cytotoxicity against human HepG2 cells assessed as cell viability at 25 uM after 24 hrs by MTT assay relative to control
The compound `Nc1c2c(nc3c1C(c1cccc(F)c1)n1c(=O)c4ccccc4c(=O)n1-3)CCCC2` (stereo not drawn) had a viability at 24 h, 25 µM of 82.7%.
`COc1ccccc1C1c2c(nc3c(c2N)CCCC3)-n2c(=O)c3ccccc3c(=O)n21` (stereo not drawn) displayed a viability at 24 h, 25 µM of 90.2%.
Regarding `Nc1c2c(nc3c1C(c1ccc(F)cc1)n1c(=O)c4ccccc4c(=O)n1-3)CCCC2` (stereo not drawn), the viability at 24 h, 25 µM came to 80%.
On the same count and under the same terms, for `Nc1c2c(nc3c1C(c1ccc(Cl)cc1)n1c(=O)c4ccccc4c(=O)n1-3)CCCC2` (stereo not drawn) the value was 94.4%.
Compound `Nc1c2c(nc3c1C(c1ccc(Br)cc1)n1c(=O)c4ccccc4c(=O)n1-3)CCCC2` (stereo not drawn) had a viability at 24 h, 25 µM of 96.4%.

The target of another data set is T1, Acetylcholinesterase. Put plainly: Inhibition of electric eel AChE using acetylthiocholine iodide as substrate preincubated for 10 mins followed by substrate addition measured for 6 mins by Ellman's method.
Settings: not given
Take `Nc1c2c(nc3c1C(c1ccccc1Cl)n1c(=O)c4ccccc4c(=O)n1-3)CCCC2` (stereo not drawn): it took 592 nM to reach half-maximal inhibition (IC50).
On the same count and under the same terms, for `Nc1c2c(nc3c1C(c1cccc(F)c1)n1c(=O)c4ccccc4c(=O)n1-3)CCCC2` (stereo not drawn) the value was 23 nM; for `Cc1ccccc1C1c2c(nc3c(c2N)CCCC3)-n2c(=O)c3ccccc3c(=O)n21` (stereo not drawn), 193 nM.
Compound `Cc1cccc(C2c3c(nc4c(c3N)CCCC4)-n3c(=O)c4ccccc4c(=O)n32)c1` (stereo not drawn) registered an IC50 of 467 nM.
For the compound `Nc1c2c(nc3c1C(c1ccc([N+](=O)[O-])cc1)n1c(=O)c4ccccc4c(=O)n1-3)CCCC2` (stereo not drawn), the IC50 came to 310 nM.
In turn, `Nc1c2c(nc3c1C(c1ccccc1Br)n1c(=O)c4ccccc4c(=O)n1-3)CCCC2` (stereo not drawn) had an IC50 of 599 nM.
`COc1ccccc1C1c2c(nc3c(c2N)CCCC3)-n2c(=O)c3ccccc3c(=O)n21` (stereo not drawn) gave a half-maximal inhibitory concentration (IC50) of 49 nM.
As to `Nc1c2c(nc3c1C(c1ccc(F)cc1)n1c(=O)c4ccccc4c(=O)n1-3)CCCC2` (stereo not drawn), it took 69 nM to reach half-maximal inhibition (IC50).
The compound `Nc1c2c(nc3c1C(c1cccc(O)c1)n1c(=O)c4ccccc4c(=O)n1-3)CCCC2` (stereo not drawn) gave a concentration for half-maximal inhibition (IC50) of 160 nM.
`Nc1c2c(nc3c1C(c1ccc(Cl)cc1)n1c(=O)c4ccccc4c(=O)n1-3)CCCC2` (stereo not drawn) returned an IC50 of 60 nM.
For `Nc1c2c(nc3c1C(c1ccc(Br)cc1)n1c(=O)c4ccccc4c(=O)n1-3)CCCC2` (stereo not drawn), it took 80 nM to reach half-maximal inhibition (IC50).

System in a further data set: not listed separately
Put plainly: in vitro. The conditions noted are these: human, HepG2 cells. This is another data set of the same source.
Description: Cytotoxicity against human HepG2 cells assessed as cell viability at 100 uM after 24 hrs by MTT assay relative to control
In turn, `Nc1c2c(nc3c1C(c1cccc(F)c1)n1c(=O)c4ccccc4c(=O)n1-3)CCCC2` (stereo not drawn) displayed a viability at 24 h, 100 µM of 74.8%.
Take `COc1ccccc1C1c2c(nc3c(c2N)CCCC3)-n2c(=O)c3ccccc3c(=O)n21` (stereo not drawn): the viability at 24 h, 100 µM was 86.4%.
Same read-out and setting: for `Nc1c2c(nc3c1C(c1ccc(F)cc1)n1c(=O)c4ccccc4c(=O)n1-3)CCCC2` (stereo not drawn) the value was 71.4%.
For `Nc1c2c(nc3c1C(c1ccc(Cl)cc1)n1c(=O)c4ccccc4c(=O)n1-3)CCCC2` (stereo not drawn), the viability at 24 h, 100 µM was 91.3%.
In the case of `Nc1c2c(nc3c1C(c1ccc(Br)cc1)n1c(=O)c4ccccc4c(=O)n1-3)CCCC2` (stereo not drawn), the viability at 24 h, 100 µM was determined as 92.8%.

The next data set has as its target Acetylcholinesterase (Electrophorus electricus) (UniProt O42275). Briefly: Potency index, ratio of IC50 for tacrine to IC50 for test compound for electric eel AChE.
Settings: not given
For `Nc1c2c(nc3c1C(c1cccc(F)c1)n1c(=O)c4ccccc4c(=O)n1-3)CCCC2` (stereo not drawn), the Ratio IC50 was 15.

Another data set has as its system PC-12. Briefly: Neuroprotective activity in rat PC12 cells assessed as decrease in H2O2-mediated apoptosis at 100 uM preincubated for 3 hrs followed by H2O2 challenge measured after 24 hrs by MTT assay.
Settings: not given
The class given is functional, cell-based.
In the case of `COc1ccccc1C1c2c(nc3c(c2N)CCCC3)-n2c(=O)c3ccccc3c(=O)n21` (stereo not drawn), the result was Active.

System in the next data set: not listed separately
Briefly: in vitro. The conditions noted are these: human, HepG2 cells. This is another data set of the same source.
Description: Cytotoxicity against human HepG2 cells assessed as cell viability at 1 uM after 24 hrs by MTT assay relative to control
As to `Nc1c2c(nc3c1C(c1cccc(F)c1)n1c(=O)c4ccccc4c(=O)n1-3)CCCC2` (stereo not drawn), the viability at 24 h, 1 µM was determined as 93.5%.
For `COc1ccccc1C1c2c(nc3c(c2N)CCCC3)-n2c(=O)c3ccccc3c(=O)n21` (stereo not drawn), the viability at 24 h, 1 µM came out at 96.3%.
On the same count and under the same terms, the value for `Nc1c2c(nc3c1C(c1ccc(F)cc1)n1c(=O)c4ccccc4c(=O)n1-3)CCCC2` (stereo not drawn) was 91.2%; that for `Nc1c2c(nc3c1C(c1ccc(Cl)cc1)n1c(=O)c4ccccc4c(=O)n1-3)CCCC2` (stereo not drawn) was 98.6%; that for `Nc1c2c(nc3c1C(c1ccc(Br)cc1)n1c(=O)c4ccccc4c(=O)n1-3)CCCC2` (stereo not drawn) was 99.8%.

System in the next data set: not listed separately
Briefly: in vitro. The conditions noted are these: human, HepG2 cells. This is another data set of the same source.
Description: Cytotoxicity against human HepG2 cells assessed as cell viability at 10 uM after 24 hrs by MTT assay relative to control
Compound `Nc1c2c(nc3c1C(c1cccc(F)c1)n1c(=O)c4ccccc4c(=O)n1-3)CCCC2` (stereo not drawn) returned a viability at 24 h, 10 µM of 86.1%.
The same measure, in the same setting: the value for `COc1ccccc1C1c2c(nc3c(c2N)CCCC3)-n2c(=O)c3ccccc3c(=O)n21` (stereo not drawn) was 95.2%; that for `Nc1c2c(nc3c1C(c1ccc(F)cc1)n1c(=O)c4ccccc4c(=O)n1-3)CCCC2` (stereo not drawn) was 83.3%; that for `Nc1c2c(nc3c1C(c1ccc(Cl)cc1)n1c(=O)c4ccccc4c(=O)n1-3)CCCC2` (stereo not drawn) was 95.1%.
As for `Nc1c2c(nc3c1C(c1ccc(Br)cc1)n1c(=O)c4ccccc4c(=O)n1-3)CCCC2` (stereo not drawn), the viability at 24 h, 10 µM was 97.6%.

System in the next data set: not listed separately
Briefly: in vitro. The conditions noted are these: human, HepG2 cells. This is another data set of the same source.
Description: Cytotoxicity against human HepG2 cells assessed as cell viability at 300 uM after 24 hrs by MTT assay relative to control
As for `Nc1c2c(nc3c1C(c1cccc(F)c1)n1c(=O)c4ccccc4c(=O)n1-3)CCCC2` (stereo not drawn), the viability at 24 h, 300 µM worked out at 68.2%.
The same measure, in the same setting: for `COc1ccccc1C1c2c(nc3c(c2N)CCCC3)-n2c(=O)c3ccccc3c(=O)n21` (stereo not drawn) the value was 83%; for `Nc1c2c(nc3c1C(c1ccc(F)cc1)n1c(=O)c4ccccc4c(=O)n1-3)CCCC2` (stereo not drawn), 66.4%; for `Nc1c2c(nc3c1C(c1ccc(Cl)cc1)n1c(=O)c4ccccc4c(=O)n1-3)CCCC2` (stereo not drawn), 89.3%.
Consider `Nc1c2c(nc3c1C(c1ccc(Br)cc1)n1c(=O)c4ccccc4c(=O)n1-3)CCCC2` (stereo not drawn), for which the viability at 24 h, 300 µM was determined as 90%.

The next data set deals with Cholinesterase (Equus caballus, UniProt P81908). Put plainly: Inhibition of equine serum BuChE using butyrylthiocholine iodide as substrate preincubated for 10 mins followed by substrate addition measured for 6 mins by Ellman's method.
Sequence of Cholinesterase (P81908 whole entry): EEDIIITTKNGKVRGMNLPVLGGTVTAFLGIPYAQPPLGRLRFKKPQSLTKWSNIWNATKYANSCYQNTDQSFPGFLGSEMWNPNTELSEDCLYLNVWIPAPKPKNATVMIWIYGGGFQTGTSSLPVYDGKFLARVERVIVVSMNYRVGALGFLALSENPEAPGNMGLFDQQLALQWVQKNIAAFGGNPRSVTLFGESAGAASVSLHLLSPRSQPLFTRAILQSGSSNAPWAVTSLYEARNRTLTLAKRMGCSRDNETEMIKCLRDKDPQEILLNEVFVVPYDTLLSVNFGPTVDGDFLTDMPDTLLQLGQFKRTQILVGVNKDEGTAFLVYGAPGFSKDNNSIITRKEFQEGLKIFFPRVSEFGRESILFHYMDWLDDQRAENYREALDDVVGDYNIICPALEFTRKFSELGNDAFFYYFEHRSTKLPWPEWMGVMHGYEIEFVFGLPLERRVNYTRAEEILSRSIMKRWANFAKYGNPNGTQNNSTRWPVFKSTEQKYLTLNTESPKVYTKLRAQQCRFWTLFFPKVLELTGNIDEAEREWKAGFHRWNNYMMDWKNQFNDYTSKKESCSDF
Settings: not given
Background: Ellman's reagent forms a yellow product with free thiols.
With `Nc1c2c(nc3c1C(c1ccccc1Cl)n1c(=O)c4ccccc4c(=O)n1-3)CCCC2` (stereo not drawn), the IC50 was more than 100000 nM.
Turning to `Nc1c2c(nc3c1C(c1cccc(F)c1)n1c(=O)c4ccccc4c(=O)n1-3)CCCC2` (stereo not drawn), half-maximal inhibition (IC50) was put at 37200 nM.
`Cc1ccccc1C1c2c(nc3c(c2N)CCCC3)-n2c(=O)c3ccccc3c(=O)n21` (stereo not drawn) returned an IC50 of more than 100000 nM.
Regarding `Cc1cccc(C2c3c(nc4c(c3N)CCCC4)-n3c(=O)c4ccccc4c(=O)n32)c1` (stereo not drawn), the IC50 is more than 100000 nM.
Take `Nc1c2c(nc3c1C(c1ccc([N+](=O)[O-])cc1)n1c(=O)c4ccccc4c(=O)n1-3)CCCC2` (stereo not drawn): the IC50 is more than 100000 nM.
In turn, `Nc1c2c(nc3c1C(c1ccccc1Br)n1c(=O)c4ccccc4c(=O)n1-3)CCCC2` (stereo not drawn) came in with a half-maximal inhibitory concentration (IC50) of more than 100000 nM.
As to `COc1ccccc1C1c2c(nc3c(c2N)CCCC3)-n2c(=O)c3ccccc3c(=O)n21` (stereo not drawn), it took 93300 nM to reach half-maximal inhibition (IC50).
In turn, `Nc1c2c(nc3c1C(c1ccc(F)cc1)n1c(=O)c4ccccc4c(=O)n1-3)CCCC2` (stereo not drawn) gave an IC50 of more than 100000 nM.
As for `Nc1c2c(nc3c1C(c1cccc(O)c1)n1c(=O)c4ccccc4c(=O)n1-3)CCCC2` (stereo not drawn), the 50% inhibitory concentration (IC50) was more than 100000 nM.
`Nc1c2c(nc3c1C(c1ccc(Cl)cc1)n1c(=O)c4ccccc4c(=O)n1-3)CCCC2` (stereo not drawn) came in with an IC50 of 96200 nM.
For the compound `Nc1c2c(nc3c1C(c1ccc(Br)cc1)n1c(=O)c4ccccc4c(=O)n1-3)CCCC2` (stereo not drawn), the IC50 was more than 100000 nM.

The next data set has as its system PC-12. Briefly: Neuroprotective activity in rat PC12 cells assessed as decrease in H2O2 mediated apoptosis at 10 uM preincubated for 3 hrs followed by H2O2 challenge measured after 24 hrs by MTT assay. The class given is functional, cell-based.
Settings: not given
As to `COc1ccccc1C1c2c(nc3c(c2N)CCCC3)-n2c(=O)c3ccccc3c(=O)n21` (stereo not drawn), the result was inactive.
